Legend:
Type in all cases: in vivo, mice
[1] = test system: breast cancer metastasis model, BCa-1; assay: Cross-comparison of PEG-Prom-mediated SPECT imaging and FDG-PET; conditions: BCa-1, PET acquired same day as SPECT
Description: FIGS. 7A-7D. Detection and localization of metastatic masses of melanoma after the systemic administration of pPEG-HSV1 tk by SPECT-CT imaging. Transverse, coronal and sagittal views of co-registered SPECT-CT images of Mel-2 (7A) and Mel-3 (7B, 7C and 7D) from FIG. 6C. All images were obtained at 24 h after [^125I]FIAU injection, which was 70 h after the IV administration of pPEG-HSV1 tk/PEI polyplex. Gross anatomical details of the metastatic masses that were located based on the SPECT-CT images in 7A, 7B, 7C and 7D. Multiple metastatic sites were detected by SPECT-CT imaging in Mel-2 (7A, dotted circle). […] (7B) Accumulated radioactivity was detected adjacent to the thoracic mid-spine toward the left side (white arrow), which corresponded to a tumor mass at this location. […] Melanoma was uncovered immediately above the diaphragm (f, white dotted circle) and in the left inguinal lymph node, correlating with 7C and 7D. Cross-comparison of the PEG-Prom-mediated imaging and FDG-PET in abreast cancer metastasis model, BCa-1. Two nodules (Tu-1 and -2) were detected by [^125I]FIAU-SPECT near the heart and were confirmed by necropsy. […] SPECT images were acquired 48 h post-injection of [^125I]FIAU, which was 94 h after the pPEG-HSV1 tk/PEI delivery. The PET images were acquired on the same day as the SPECT data. […]

PC3-ML-Luc metastases [2] = assay: FDG-PET/CT, intra-cardiac PC3-ML-Luc metastasis model; conditions: PCa-3, same mouse
Description: (§1) FIGS. 17A-E. AEG-Prom-based SPECT/CT imaging detects distant metastasis not identified by NaF- or FDG-PET/CT. The experimental metastases model, PCa-3 (n=5), was developed by intra-cardiac injection of 5×10^4 PC3-ML-Luc cells, SPECT/CT images for PCa-3 and a representative healthy control Ctrl-1 were obtained at 18-20 h after [^125I]FIAU injection, which was 66-68 h after IV administration of pAEG-HSV1tk-PEI polyplex. (17A, 17B) NaF-PET/CT, AEG-Prom SPECT/CT and FDG-PET imaging in Ctrl-1 (17A) and the PC3-ML-Luc model. PCa-3 (17B). (17D, 17E) Gross pathology of the metastatic nodules that were located on the basis of the SPECT/CT images. ([…]) Ex vivo BLI of the dissected organs, imaged within 20 min of euthanasia. […] A possible L1 lesion was detected by FDG/PET (17B). […]
(§2) Cloning of plasmid constructs. pPEG-Luc and pAEG-Luc were generated as described previously (3, 28). […] Luminescence was normalized for transfection efficiency by co-transfection with a vector expressing renilla luciferase, pGL4.74[hRluc/TK] […] After 48 h of transfection, the expression level of the Luc reporter was measured by the Dual Luciferase Reporter Assay kit (Promega). Luminescence was normalized for cell number (by μg total protein) using the BCA Protein Assay Kit (Pierce Biotechnology, Rockford, Ill.). […]

PC3-ML-Luc metastases [3] = assay: NaF-PET/CT, intra-cardiac PC3-ML-Luc metastasis model; conditions: PCa-3
Description: as §1, §2

Structure (SMILES)	Detection of nodule Tu-2 (smaller nodule attached to the heart) [1]	Detection of metastatic lesions by FDG-PET/CT (PC3-ML-Luc metastases [2])	Detection of metastatic lesions by NaF-PET/CT (PC3-ML-Luc metastases [3])
OC[C@H]1OC(O)[C@H]([18F])[C@@H](O)[C@@H]1O (stereo partly drawn) [FDG, [^18F]fluorodeoxyglucose]	not obvious in the PET image	only able to identify a lesion in the left shoulder	
[18F-].[Na+] [NaF, [^18F]NaF]			failed to identify the metastases within tibia and axial skeleton

Reference: patent US20200384135A1, “CANCER IMAGING WITH THERAPY: THERANOSTICS” (Virginia Commonwealth University, priority 2010, published 2020)
